Results from US11352354B2, “Substituted penta-fused hexa-heterocyclic compounds, preparation method therefor, drug combination and use thereof” (Xiamen University, priority 2017, dated 2022).
Marks after values point to notes of the source that are not given here.

How the values were obtained:
[1] = molecular target: PIKfyve protein (Homo sapiens (Human), UniProt Q9Y2I7); assay: Dissociation equilibrium constant (Kd) of compound and PIKfyve protein, DiscoverX KINOMEscan; format: binding; settings: eleven 3-fold dilutions, curve fitting
Experimental: II. Determination of Dissociation Equilibrium Constant (Kd Value) of Compound and PIKfyve Protein
The Kd value was determined by DiscoverX's KINOMEscan™ technology according to the following steps:
1. Preparation of magnetic beads: biotin-labeled small molecule ligand and avidin-coated magnetic beads were allowed to interact at room temperature for 30 minutes, and then added with excess biotin, followed by washing with a blocking solution (1% BSA, 0.05% Tween 20, 1 mM DTT) to remove unbound ligand.
2. Binding reaction: in a 384 plate, 0.02 mL system, DNA-labeled protein, small molecule ligand-bound magnetic beads, and different concentrations of compound to be tested were mixed in a reaction solution (0.17×PBS, 0.05% Tween 20, 6 mM DTT) at room temperature with shaking for 1 hr, to which was added an eluant (1×PBS, 0.05% Tween 20) for elution. Magnetic beads were resuspended by an eluant (1×PBS, 0.05% Tween 20, 0.5 μM non-biotin-labeled small molecule ligand), and shaken at room temperature for 30 min before separating out the eluant.
3. Determination of Kd value: the content of protein in the above eluate was determined by qPCR. Eleven 3-fold dilution concentrations were determined for the compound to be tested, with 3 DMSO controls for each concentration, and the Kd value was obtained by curve fitting.

[2] = tested on: JeKo-1 cells; assay: Tumor cell growth inhibition by MTS method, JeKo-1; format: cell-based; settings: 5 days of culture; for inhibition at 10 µM: read-out: cell growth inhibition rate of compounds at 10 μM
Experimental: III. Determination of IC50 Value of Compound for Inhibiting Tumor Cell Growth by MTS Method
1. Cell plating: cells in logarithmic growth phase were counted and inoculated in a 96-well plate (20000 cells per well).
2. Administrating agent to cell: 10 mM compound mother solution in DMSO was subjected to 3 fold-gradient dilution, to set 8 concentrations, which were then added to various wells, with three replicates for each concentration, and three blank wells (only culture medium) and three negative controls (containing 0.1% DMSO) on each plate.
3. […] The OD value at 490 nm was measured with microplate reader OD490. The cell growth inhibition rate was calculated by the following formula: Cell growth inhibition rate %=1−(ODexperimental group−ODblank group)/(ODnegative group−ODblank group)×100%
The semi-inhibitory concentration IC50 of the compound acting on cell growth was calculated using GradPad Prism 5 software according to the measured cell growth inhibition rate.
In the following table it lists the IC50 value or the inhibition rates of some compounds at 10 μM against JeKo-1 cells

[3] = tested on: MDA-MB-231 cells; assay: Vacuolation of MDA-MB-231 cells caused by inhibition of compounds on PIKfyve (microscopy); format: cell-based; settings: MDA-MB-231 cells
Source text: I. Determination of Vacuolation of MDA-MB-231 Cells Caused by Inhibition of Compounds on PIKfyve
When the activity of pikfyve kinase is inhibited, vacuoles will be produced in cytoplasm. By observing the number of vacuoles under a microscope, the ability of compounds to inhibit the activity of pikfyve kinase can be known.
1. Cell plating: cells in logarithmic growth phase were made into a single cell suspension, counted with a cell counter and diluted to a cell concentration of about 2×10^5/mL. Then, the cells were inoculated into a 12-well plate, and cultured in a 37° C., 5% CO2 incubator.
3. Vacuolation test: after 24 and 48 hours of culture, photos were taken under an […] to observe the degree of vacuolation.
(In the table, “+” represents the degree of vacuolation; more “+” indicates more obvious vacuolation; “−” represents no vacuolation)

[4] = Homo sapiens, JeKo-1, 120 h, 10 μM

Sequence of PIKfyve protein (Q9Y2I7 whole entry): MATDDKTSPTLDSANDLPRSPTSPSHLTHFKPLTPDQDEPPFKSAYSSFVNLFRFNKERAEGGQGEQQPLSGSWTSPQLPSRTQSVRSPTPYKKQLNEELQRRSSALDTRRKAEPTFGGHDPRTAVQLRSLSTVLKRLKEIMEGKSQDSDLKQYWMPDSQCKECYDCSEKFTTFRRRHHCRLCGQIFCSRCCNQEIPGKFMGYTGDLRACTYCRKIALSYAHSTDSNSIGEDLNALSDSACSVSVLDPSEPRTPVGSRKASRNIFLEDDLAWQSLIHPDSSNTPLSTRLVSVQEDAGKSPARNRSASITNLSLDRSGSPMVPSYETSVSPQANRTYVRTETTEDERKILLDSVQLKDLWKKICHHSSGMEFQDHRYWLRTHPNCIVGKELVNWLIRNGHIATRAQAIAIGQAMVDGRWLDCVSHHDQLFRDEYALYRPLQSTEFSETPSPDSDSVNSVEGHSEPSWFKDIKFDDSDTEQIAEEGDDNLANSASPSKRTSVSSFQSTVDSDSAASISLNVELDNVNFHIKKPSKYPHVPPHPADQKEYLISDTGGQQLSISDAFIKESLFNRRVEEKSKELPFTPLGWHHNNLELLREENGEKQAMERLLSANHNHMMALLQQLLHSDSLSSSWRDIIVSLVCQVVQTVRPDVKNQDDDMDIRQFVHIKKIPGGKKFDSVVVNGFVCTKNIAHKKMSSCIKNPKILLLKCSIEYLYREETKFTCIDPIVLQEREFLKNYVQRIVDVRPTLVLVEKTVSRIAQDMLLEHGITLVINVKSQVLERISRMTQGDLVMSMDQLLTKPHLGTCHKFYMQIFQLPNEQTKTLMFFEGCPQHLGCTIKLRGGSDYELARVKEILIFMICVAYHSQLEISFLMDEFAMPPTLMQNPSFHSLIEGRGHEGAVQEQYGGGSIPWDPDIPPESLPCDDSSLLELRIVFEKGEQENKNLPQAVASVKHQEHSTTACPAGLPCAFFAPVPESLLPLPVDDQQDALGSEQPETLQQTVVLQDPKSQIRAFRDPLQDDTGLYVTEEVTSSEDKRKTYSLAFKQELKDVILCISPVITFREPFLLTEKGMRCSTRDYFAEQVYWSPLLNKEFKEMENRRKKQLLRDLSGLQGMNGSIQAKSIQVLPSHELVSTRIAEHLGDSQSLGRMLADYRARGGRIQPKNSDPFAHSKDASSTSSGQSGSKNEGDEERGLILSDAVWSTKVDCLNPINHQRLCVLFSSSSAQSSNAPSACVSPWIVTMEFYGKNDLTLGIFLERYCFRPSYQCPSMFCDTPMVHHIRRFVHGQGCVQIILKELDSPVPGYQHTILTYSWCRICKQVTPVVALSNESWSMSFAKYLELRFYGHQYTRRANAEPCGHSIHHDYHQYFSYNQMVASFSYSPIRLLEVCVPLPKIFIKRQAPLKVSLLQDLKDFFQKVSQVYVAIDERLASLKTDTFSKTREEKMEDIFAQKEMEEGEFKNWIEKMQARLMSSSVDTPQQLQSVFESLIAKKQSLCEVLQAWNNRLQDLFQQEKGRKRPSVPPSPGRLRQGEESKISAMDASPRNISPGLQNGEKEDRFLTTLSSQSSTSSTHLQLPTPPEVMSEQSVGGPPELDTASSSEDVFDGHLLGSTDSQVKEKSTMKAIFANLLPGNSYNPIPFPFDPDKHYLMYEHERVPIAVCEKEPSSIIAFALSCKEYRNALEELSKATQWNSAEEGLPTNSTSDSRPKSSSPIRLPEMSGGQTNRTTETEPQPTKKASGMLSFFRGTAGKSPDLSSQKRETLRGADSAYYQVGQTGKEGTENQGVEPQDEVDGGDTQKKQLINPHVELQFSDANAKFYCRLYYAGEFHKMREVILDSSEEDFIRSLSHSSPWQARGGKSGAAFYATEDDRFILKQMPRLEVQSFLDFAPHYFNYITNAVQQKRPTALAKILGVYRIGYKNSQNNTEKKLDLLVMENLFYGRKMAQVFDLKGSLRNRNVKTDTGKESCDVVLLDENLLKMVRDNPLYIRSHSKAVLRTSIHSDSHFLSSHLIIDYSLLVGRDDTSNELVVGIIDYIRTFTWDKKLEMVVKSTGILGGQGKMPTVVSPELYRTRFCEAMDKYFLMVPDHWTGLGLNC

Structure (SMILES)	Kd [1]	IC50 ([2]; Homo sapiens, JeKo-1, 120 h)	degree of vacuolation, 1 μM, 24 h [3]	degree of vacuolation, 1 μM, 48 h [3]	degree of vacuolation, 10 μM, 24 h [3]	degree of vacuolation, 10 μM, 48 h [3]	inhibition at 10 µM [2, 4]	IC50 [2]	cell growth inhibition rate of compounds at 10 μM ([2]; 10 μM)
Cc1ccc(NC(=O)c2cccc(C(F)(F)F)c2)cc1Nc1nc(-c2ccccc2)c2[nH]ccc2n1 [V-c-41]	> 30 µM								
Cc1ccc(C(=O)Nc2cccc(OC(F)(F)F)c2)cc1Nc1nc(-c2ccccc2)c2[nH]ccc2n1 [V-c-61]	> 30 µM								
COc1ccc(C(F)(F)F)cc1NC(=O)c1ccc(C)c(Nc2nc(-c3ccccc3)c3[nH]ccc3n2)c1 [V-c-51]	> 30 µM								
Cc1ccc(NC(=O)c2cccc(C(F)(F)F)c2)cc1Nc1nc(-c2cccs2)c2[nH]ccc2n1 [V-c-43]	> 30 µM								
COc1ccc(C(F)(F)F)cc1NC(=O)c1ccc(C)c(Nc2nc(-c3cccs3)c3[nH]ccc3n2)c1 [V-c-53]	> 30 µM								
Cc1ccc(C(=O)Nc2cccc(OC(F)(F)F)c2)cc1Nc1nc(-c2ccco2)c2[nH]ccc2n1 [V-c-62]	> 30 µM								
Cc1ccc(C(=O)Nc2cccc(OC(F)(F)F)c2)cc1Nc1nc(-c2cccs2)c2[nH]ccc2n1 [V-c-63]	> 30 µM								
O=C(Nc1cccc(C(F)(F)F)c1)c1cccc(Nc2cc(-c3ccncc3)nc3sccc23)c1 [VIII-a-6]		6.32 µM	+	+	+	+			
Cc1ccc(C(=O)Nc2cccc(C(F)(F)F)c2)cc1Nc1nc(-c2ccncc2)nc2cc[nH]c12 [V-a-6]		0.987 µM	++	++	++	++			
Cc1ccc(NC(=O)c2cccc(C(F)(F)F)c2)cc1Nc1nc(-c2cccnc2)nc2c1ncn2C [IV-b-7]			+	+	+	+	19.1%		
Cc1ccc(C(=O)Nc2cccc(C(F)(F)F)c2)cc1Nc1nc(-c2ccncc2)nc2[nH]ccc12 [II-a-4]			−	−	+	+	18.7%		
Cn1ncc2c(NCc3cccnc3)nc(-c3cccc(NC(=O)Nc4cccc(C(F)(F)F)c4)c3)nc21 [III-b-14]		6.78 µM	+	+	+	+			
Cc1ccc(C(=O)Nc2cccc(C(F)(F)F)c2)cc1Nc1nc(-c2cccnc2)nc2cc[nH]c12 [V-a-5]		3.08 µM	+++	+++	++	++			
Cc1ccc(NC(=O)c2cccc(C(F)(F)F)c2)cc1Nc1nc(-c2ccco2)c2[nH]ccc2n1 [V-c-42]	> 30 µM								
Cc1ccc(C(=O)Nc2cccc(C(F)(F)F)c2)cc1Nc1nc(-c2ccncc2)nc2ccn(C)c12 [V-b-4]			++	++	++	++	17.2%		
O=C(Nc1cccc(Nc2cc(-c3cccnc3)nc3sccc23)c1)c1cccc(C(F)(F)F)c1 [VIII-a-1]		2.71 µM	++	++	++	++			
Cc1ccc(NC(=O)c2cccc(C(F)(F)F)c2)cc1Nc1cc(-c2cccnc2)nc2sccc12 [VIII-a-3]		2.01 µM	++	++	++	++			
Cc1ccc(NC(=O)c2cccc(C(F)(F)F)c2)cc1Nc1nc(-c2cccnc2)nc2c1cnn2C [III-b-10]		1.88 µM	−	+	−	+			
Cc1ccc(Nc2nc(-c3cccc(NC(=O)c4ccc(N)nc4)c3)nc3ccsc23)nc1 [VII-a-17]		1.15 µM	−	−	−	−			
Cc1ccc(C(=O)Nc2cccc(C(F)(F)F)c2)cc1Nc1nc(-c2ccncc2)nc2[nH]cnc12 [IV-a-2]			+	++	+	++	19%		
COc1ccc(C(F)(F)F)cc1NC(=O)c1ccc(C)c(Nc2nc(-c3ccco3)c3[nH]ccc3n2)c1 [V-c-52]	> 30 µM								
Cc1ccc(C(=O)Nc2cccc(C(F)(F)F)c2)cc1Nc1cc(-c2cccnc2)nc2c1ccn2C [I-b-3]			+	+	++	++		2.68 µM	
Cc1ccc(NC(=O)c2cccc(C(F)(F)F)c2)cc1Nc1cc(-c2ccncc2)nc2c1ccn2C [I-b-2]		1.6 µM	−	−	++	++			
Cc1ccc(C(=O)Nc2cccc(C(F)(F)F)c2)cc1Nc1cc(-c2cccnc2)nc2sccc12 [VIII-a-7]		3.17 µM	++	++	+++	+++			
Cc1ccnc(Nc2nc(-c3cccc(NC(=O)c4cccc(C(F)(F)F)c4)c3)nc3ccsc23)c1 [VII-a-18]		2.56 µM	+	+	+	+			
Cc1ccc(C(=O)Nc2cccc(C(F)(F)F)c2)cc1Nc1nc(-c2cccc(Cl)c2)nc2c1cnn2C [III-b-3]		4.86 µM	−		−				
Cc1ccc(NC(=O)c2cccc(C(F)(F)F)c2)cc1Nc1cc(-c2ccncc2)nc2sccc12 [VIII-a-4]			+	+	+	+	17.3%		
Cc1ccnc(Nc2nc(-c3cccc(NC(=O)c4ccc(N)nc4)c3)nc3ccsc23)c1 [VII-a-19]		1.52 µM	−	−	−	−			
Cc1ccc(C(=O)Nc2cccc(C(F)(F)F)c2)cc1Nc1nc(-c2cccnc2)cn2ccnc12 [VI-a-6]			−		−				11.3%^a
